From patent US10206907B2, “Compounds useful for the treatment of degenerative and inflammatory diseases” (GALAPAGOS NV, priority 2008, dated 2019)

Molecular target: Recombinant human JAK1 catalytic domain (Homo sapiens (Human), UniProt P23458)
Assay: JAK1 inhibition assay
Assay type: biochemical
Details: semi-quantitative score
Experimental: Plates were washed 6 times with 300 μL per well of a 75 mM phosphoric acid solution and the bottom of the plates was sealed. 40 μL/well of Microscint-20 was added, the top of the plates was sealed and readout was performed using the Topcount (Perkin Elmer). Kinase activity was calculated by subtracting counts per minute (cpm) obtained in the presence of a positive control inhibitor (10 μM staurosporine) from cpm obtained in the presence of vehicle. The ability of a test compound to inhibit this activity was determined as: Percentage inhibition=((cpm determined for sample with test compound present−cpm determined for sample with positive control inhibitor) divided by (cpm determined in the presence of vehicle−cpm determined for sample with positive control inhibitor))*100%.
Dose dilution series were prepared for the compounds enabling the testing of dose-response effects in the JAK1 assay and the calculation of the IC50 for each compound.

Recombinant human JAK1 catalytic domain, sequence (P23458 850-1154): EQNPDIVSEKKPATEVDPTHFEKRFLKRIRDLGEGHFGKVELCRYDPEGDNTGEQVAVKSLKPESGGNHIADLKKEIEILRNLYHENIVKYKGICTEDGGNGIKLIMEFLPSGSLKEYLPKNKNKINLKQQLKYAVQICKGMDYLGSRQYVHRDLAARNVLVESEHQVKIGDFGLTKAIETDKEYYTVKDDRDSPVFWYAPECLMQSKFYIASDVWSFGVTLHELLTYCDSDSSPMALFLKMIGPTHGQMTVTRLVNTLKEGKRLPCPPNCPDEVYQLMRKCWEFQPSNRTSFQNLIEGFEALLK

IC50 | SMILES
> 1000 nM | O=C(Nc1nc2cccc(-c3ccc(N4CCNCC4)nc3)n2n1)C1CC1 [Compound 61, N-(5-(6-(piperazin-1-yl)pyridin-3-yl)-[1,2,4]triazolo[1,5-a]pyridin-2-yl)cyclopropanecarboxamide]
101 to 500 nM | CN(Cc1ccc(-c2ccccn2)cc1)Cc1ccc(-c2cccc3nc(NC(=O)C4CC4)nn23)cc1 [Compound 159, N-(5-(4-((methyl(4-(pyridin-2-yl)benzyl)amino)methyl)phenyl)-[1,2,4]triazolo[1,5-a]pyridin-2-yl)cyclopropanecarboxamide]
> 1000 nM | O=C(Nc1nc2cccc(-c3cn(Cc4ccccn4)nn3)n2n1)C1CC1 [Compound 193]
101 to 500 nM | Cc1cc(CN(C)Cc2ccc(-c3cccc4nc(NC(=O)C5CC5)nn34)cc2)nn1C [Compound 160, N-(5-(4-((((1,5-dimethyl-1H-pyrazol-3-yl)methyl)(methyl)amino)methyl)phenyl)-[1,2,4]triazolo[1,5-a]pyridin-2-yl)cyclopropanecarboxamide]
> 1000 nM | O=C(Nc1nc2cccc(-c3ccc(NS(=O)(=O)C4CC4)nc3)n2n1)C1CC1 [Compound 191, N-(5-(6-(cyclopropanesulfonamido)pyridin-3-yl)-[1,2,4]triazolo[1,5-a]pyridin-2-yl)cyclopropanecarboxamide]
> 1000 nM | O=C(Nc1nc2cccc(-c3ccc(N4CCOCC4)nc3)n2n1)C1CC1 [Compound 6, N-(5-(6-morpholinopyridin-3-yl)-[1,2,4]triazolo[1,5-a]pyridin-2-yl)cyclopropanecarboxamide]
> 1000 nM | CN1CCN(Cc2ccc(-c3cccc4nc(NC(=O)C5CC5)nn34)cc2)CC1 [Compound 130, N-(5-(4-((4-methylpiperazin-1-yl)methyl)phenyl)-[1,2,4]triazolo[1,5-a]pyridin-2-yl)cyclopropanecarboxamide]
101 to 500 nM | CCOCC1CCN(C(=O)c2ccc(-c3cccc4nc(NC(=O)C5CC5)nn34)cc2)CC1 [Compound 73]
> 1000 nM | Cc1cc(CNc2ccc(-c3cccc4nc(NC(=O)C5CC5)nn34)cn2)nn1C [Compound 173, N-(5-(6-((1,5-dimethyl-1H-pyrazol-3-yl)methylamino)pyridin-3-yl)-[1,2,4]triazolo[1,5-a]pyridin-2-yl)cyclopropanecarboxamide]
101 to 500 nM | O=C(Nc1ccc(-c2cccc3nc(NC(=O)C4CC4)nn23)cc1)c1cnccn1 [Compound 35, N-(4-(2-(cyclopropanecarboxamido)-[1,2,4]triazolo[1,5-a]pyridin-5-yl)phenyl)pyrazine-2-carboxamide]
101 to 500 nM | O=C(Nc1nc2cccc(-c3ccc(C(=O)N4CCC(n5nnc6ccccc65)CC4)cc3)n2n1)C1CC1 [Compound 152, N-(5-(4-(4-(1H-benzo[d][1,2,3]triazol-1-yl)piperidine-1-carbonyl)phenyl)-[1,2,4]triazolo[1,5-a]pyridin-2-yl)cyclopropanecarboxamide]
> 1000 nM | O=C(Nc1nc2cccc(-c3ccnc(N4CCC(CCN5CCOCC5)CC4)c3)n2n1)C1CC1 [Compound 95, N-(5-(2-(4-(2-morpholinoethyl)piperidin-1-yl)pyridin-4-yl)-[1,2,4]triazolo[1,5-a]pyridin-2-yl)cyclopropanecarboxamide]
101 to 500 nM | O=C(Nc1nc2cccc(-c3ccc(C(=O)N4CCC(CCN5CCOCC5)CC4)cc3)n2n1)C1CC1 [Compound 94, N-(5-(4-(4-(2-morpholinoethyl)piperidine-1-carbonyl)phenyl)-[l,2,4]triazolo[1,5-a]pyridin-2-yl)cyclopropanecarboxamide]
501 to 1000 nM | CN(Cc1ccc(-c2cncnc2)cc1)Cc1ccc(-c2cccc3nc(NC(=O)C4CC4)nn23)cc1 [Compound 161, N-(5-(4-((methyl(4-(pyrimidin-5-yl)benzyl)amino)methyl)phenyl)-[1,2,4]triazolo[1,5-a]pyridin-2-yl)cyclopropanecarboxamide]
501 to 1000 nM | O=C(Nc1nc2cccc(-c3ccc(C(=O)N4CCC(c5nc6ccccc6[nH]5)CC4)cc3)n2n1)C1CC1 [Compound 128, N-(5-(4-(4-(1H-benzo[d]imidazol-2-yl)piperidine-1-carbonyl)phenyl)-[1,2,4]triazolo[1,5-a]pyridin-2-yl)cyclopropanecarboxamide]
> 1000 nM | O=C(Nc1nc2cccc(-c3cnc(N4CCCCC4)nc3)n2n1)C1CC1 [Compound 9, N-(5-(2-(piperidin-1-yl)pyrimidin-5-yl)-[1,2,4]triazolo[1,5-a]pyridin-2-yl)cyclopropanecarboxamide]
101 to 500 nM | O=C(Nc1ccc(-c2cccc3nc(NC(=O)C4CC4)nn23)cc1)c1ccccn1 [Compound 55, N-(4-(2-(cyclopropanecarboxamido)-[1,2,4]triazolo[1,5-a]pyridin-5-yl)phenyl)picolinamide]

IC50 | SMILES
101 to 500 nM | CC(=O)N1CCN(Cc2ccc(-c3cccc4nc(NC(=O)C5CC5)nn34)cc2)CC1 [Compound 141, N-(5-(4-((4-acetoylpiperazin-1-yl)methyl)phenyl)-[1,2,4]triazolo[1,5-a]pyridin-2-yl)cyclopropanecarboxamide]
> 1000 nM | CN(CCc1ccccn1)Cc1ccc(-c2cccc3nc(NC(=O)C4CC4)nn23)cc1 [Compound 155, N-(5-(4-((methyl(2-(pyridin-2-yl)ethyl)amino)methyl)phenyl)-[1,2,4]triazolo[1,5-a]pyridin-2-yl)cyclopropanecarboxamide]
101 to 500 nM | COc1cccc(C(=O)Nc2ccc(-c3cccc4nc(NC(=O)C5CC5)nn34)cc2)c1 [Compound 53, N-(4-(2-(cyclopropanecarboxamido)-[1,2,4]triazolo[1,5-a]pyridin-5-yl)phenyl)-3-methoxybenzamide]
101 to 500 nM | O=C(Nc1ccc(-c2cccc3nc(NC(=O)C4CC4)nn23)cc1)C1CCC1 [Compound 70, N-(4-(2-(cyclopropanecarboxamido)-[1,2,4]triazolo[1,5-a]pyridin-5-yl)phenyl)cyclobutanecarbox-amide]
101 to 500 nM | O=C(Nc1nc2cccc(-c3ccc(OCc4cccc(OC(F)(F)F)c4)cc3)n2n1)C1CC1 [Compound 38, N-(5-(4-(3-(trifluoromethoxy)benzyloxy)phenyl)-[1,2,4]triazolo[1,5-a]pyridin-2-yl)cyclopropanecarboxamide]
101 to 500 nM | O=C(Nc1nc2cccc(-c3ccc(C(=O)N4CCC(c5noc6cc(F)ccc56)CC4)cc3)n2n1)C1CC1 [Compound 149, N-(5-(4-(4-(6-fluorobenzo[d]isoxazol-3-yl)piperidine-1-carbonyl)phenyl)-[1,2,4]triazolo[1,5-a]pyridin-2-yl)cyclopropanecarboxamide]
101 to 500 nM | COCC(C)N(Cc1ccc(F)cc1)C(=O)c1ccc(-c2cccc3nc(NC(=O)C4CC4)nn23)cc1 (stereo not shown) [Compound 151, 4-(2-(cyclopropanecarboxamido)-[1,2,4]triazolo[1,5-a]pyridin-5-yl)-N-(4-fluorobenzyl)-N-(1-methoxypropan-2-yl)benzamide]
101 to 500 nM | N#CCN(CCc1ccccc1)C(=O)c1ccc(-c2cccc3nc(NC(=O)C4CC4)nn23)cc1 [Compound 181, N-(cyanomethyl)-4-(2-(cyclopropanecarboxamido)-[1,2,4]triazolo[1,5-a]pyridin-5-yl)-N-phenethylbenzamide]
501 to 1000 nM | CC(=O)NC1CCN(C(=O)Cc2ccc(-c3cccc4nc(NC(=O)C5CC5)nn34)cc2)CC1 [Compound 323, Cyclopropanecarboxylic acid (5-{4-[2-(4-acetylamino-piperidin-1-yl)-2-oxo-ethyl]-phenyl}-[1,2,4]triazolo[1,5-a]pyridin-2-yl)-amide]
101 to 500 nM | CC(C)(CN1CCOCC1)NC(=O)c1ccc(-c2cccc3nc(NC(=O)C4CC4)nn23)cc1 [Compound 102, 4-(2-(cyclopropanecarboxamido)-[1,2,4]triazolo[1,5-a]pyridin-5-yl)-N-(2-methyl-1-morpholinopropan-2-yl)benzamide]
101 to 500 nM | O=C(Nc1nc2cccc(-c3ccc(CN4CCN(c5ccccn5)CC4)cc3)n2n1)C1CC1 [Compound 142, N-(5-(4-((4-(pyridin-2-yl)piperazin-1-yl)methyl)phenyl)-[1,2,4]triazolo[1,5-a]pyridin-2-yl)cyclopropanecarboxamide]
101 to 500 nM | O=C(Nc1ccc(-c2cccc3nc(NC(=O)C4CC4)nn23)cc1)C1CCCCC1 [Compound 45, N-(4-(2-(cyclopropanecarboxamido)-[1,2,4]triazo[1,5-a]pyridin-5-yl)phenyl)cyclohexanecarbox-amide]
501 to 1000 nM | O=C(Nc1nc2cccc(-c3cn(Cc4ccccc4)nn3)n2n1)C1CC1 [Compound 187, N-(5-(1-benzyl-1H-1,2,3-triazol-4-yl)-[1,2,4]triazolo[1,5-a]pyridin-2-yl)cyclopropanecarboxamide]
> 1000 nM | O=C(Nc1nc2cccc(-c3ccc(NS(=O)(=O)Cc4ccccc4)nc3)n2n1)C1CC1 [Compound 184, N-(5-(6-(phenylmethylsulfonamido)pyridin-3-yl)-[1,2,4]triazolo[1,5-a]pyridin-2-yl)cyclopropanecarboxamide]
101 to 500 nM | CN1CCN(c2ccc(COc3ccc(-c4cccc5nc(NC(=O)C6CC6)nn45)cc3)cn2)CC1 [Compound 167, N-(5-(4-((6-(4-methylpiperazin-1-yl)pyridin-3-yl)methoxy)phenyl)-[1,2,4]triazolo[1,5-a]pyridin-2-yl)cyclopropanecarboxamide]
101 to 500 nM | O=C(Nc1nc2cccc(-c3ccc(S(=O)(=O)Cc4cccnc4)cc3)n2n1)C1CC1 [Compound 195, N-(5-(4-(pyridin-3-ylmethylsulfonyl)phenyl)-[1,2,4]triazolo[1,5-a]pyridin-2-yl)cyclopropanecarboxamide]
501 to 1000 nM | O=C(Nc1nc2cccc(-c3cnc(N4CCCC4)nc3)n2n1)C1CC1 [Compound 4, N-(5-(2-(pyrrolidin-1-yl)pyrimidin-5-yl)-[1,2,4]triazolo[1,5-a]pyridin-2-yl)cyclopropanecarboxamide]
